Values after ≈ are worked out from the molar mass of the structure shown. Read-outs that look alike come from different tables or passages of the source.
Columns and labels:
Type in all cases: cell-based
[1] = test system: E. faecalis ATCC 29212 (NB04001); experiment: MIC by broth microdilution, E. faecalis NB04001; conditions: Enterococcus faecalis, ATCC29212, CAMHB, 35° C., 20 hours, read-out: Antibacterial activity (MIC) NB04001
Method: (§1) Bacterial isolates were cultivated from −80° C. frozen stocks by overnight passages at 35° C. in ambient air on Mueller-Hinton agar plates (MHA, Becton Dickinson, Franklin Lakes, NB) with the exception of S. pneumoniae which was grown overnight at 35° C. in the presence of 5% CO2 on blood agar plates (tryptic soy agar with 5% sheep blood (Thermo Scientific, Waltham, Mass.) . The following quality control and wild type strains were obtained from the American Type Culture Collection (ATCC; Rockville, Md.) and are coded in the Novartis strain collection as indicated: E. coli ATCC 25922 (NB27001), E. faecalis ATCC 29212 (NB04001), S. aureus ATCC 49951 (NB01006) and S. pneumoniae ATCC […] (NB07001). […] P. aeruginosa NB52019, obtained from Queen's University (Kingston, Ontario, Canada), is the wild-type PAO1 strain.
(§2) Minimal Inhibitory Concentrations (MIC) were determined by the broth microdilution method in accordance with Clinical and Laboratories Institute (CLSI) guidelines. In brief, fresh bacterial overnight cultures were re-suspended in sterile saline, adjusted to a 0.5 McFarland turbidity standard and then diluted to yield a final inoculum of approximately 5×10^5 colony-forming units (CFU)/mL. All bacterial suspensions were prepared in cation adjusted Mueller-Hinton Broth (CAMHB; Becton Dickinson, Franklin Lakes, N.J.;) with the exception of S. pneumoniae which was prepared in CAMHB supplemented with 5% lysed horse blood (Hardy Diagnostics, Santa Maria, Calif.). Two-fold serial dilutions of compounds were prepared in 100% dimethyl sulfoxide (DMSO) at 100-fold the highest final assay concentration; the resulting dilution series of compounds were diluted 1:10 with sterile water. Ten μL of the drug dilution series in 10% DMSO was transferred to microtiter wells and 90 μL of bacterial suspension was inoculated into the wells. All inoculated microdilution trays were incubated in ambient air at 35° C. for 20 hours. Following incubation, assay plates were read in a microtiter plate reader at 600 nm and visually inspected to confirm the MIC endpoint well with the OD value. The lowest concentration of the compound that prevented visible growth was recorded as the MIC (in μg/mL).

[2] = test system: S. aureus NB01080 fluoroquinolone-resistant clinical isolate; experiment: MIC by broth microdilution, S. aureus NB01080; conditions: Staphylococcus aureus, CAMHB, 35° C., 20 hours, read-out: Antibacterial activity (MIC) NB01080
Method: as §1, §2

[3] = test system: S. pneumoniae ATCC 25922 (NB07001); experiment: MIC by broth microdilution, S. pneumoniae NB07001; conditions: Streptococcus pneumoniae, read-out: Antibacterial activity (MIC) NB07001
Method: as §1, §2

[4] = test system: P. aeruginosa NB52019, wild-type PAO1 strain; experiment: MIC by broth microdilution, P. aeruginosa NB52019; conditions: Pseudomonas aeruginosa, CAMHB, 35° C., 20 hours, read-out: Antibacterial activity (MIC) NB52019
Method: as §1, §2

[5] = test system: S. aureus NB01006-AVR005, gyrA (S84L), grlA (580F) and grlB (E471K); experiment: microbe, parasite or virus in culture; conditions: Staphylococcus aureus, 20 h, read-out: Antibacterial activity (MIC) NB01006-AVR005
Method: as §1, §2

[6] = test system: S. aureus ATCC 49951 (NB01006); experiment: MIC by broth microdilution, S. aureus NB01006; conditions: Staphylococcus aureus, ATCC49951, CAMHB, 35° C., 20 hours, read-out: Antibacterial activity (MIC) NB01006
Method: as §1, §2

[7] = test system: E. coli ATCC 25922 (NB27001); experiment: MIC by broth microdilution, E. coli NB27001; conditions: Escherichia coli, ATCC25922, CAMHB, 35° C., 20 hours, read-out: Antibacterial activity (MIC) NB27001
Method: as §1, §2

[8] = ATCC25922, S. pneumoniae, CAMHB supplemented with 5% lysed horse blood, 35° C., 20 hours

Structure (SMILES)	MIC [1] [µg/mL]	MIC [2] [µg/mL]	MIC ([3]; ATCC25922, 20 h) [µg/mL]	MIC [4] [µg/mL]	MIC [5] [µg/mL]	MIC [6] [µg/mL]	MIC [7] [µg/mL]	MIC [3, 8] [µg/mL]
C[C@H]1COc2c(N3CCC(CNC4CC4)C3)c(F)cc3cc(C(=O)O)c(=O)n1c23 (mixture of isomers) [Example 1.11, (3S)-10-(3-((cyclopropylamino)methyl)pyrrolidin-1-yl)-9-fluoro-3-methyl-5-oxo-2,3-dihydro-5H-[1,4]oxazino[2,3,4-ij]quinoline-6-carboxylic acid]	1 to 32	1 to 32	< 1	> 32	> 32	1 to 32	1 to 32	–
C[C@H]1COc2c(N3CC4C(N)C4C3)c(F)cc3cc(C(=O)O)c(=O)n1c23 (mixture of isomers) [Example 1.38, (3S)-10-(6-amino-3-azabicyclo[3.1.0]hexan-3-yl)-9-fluoro-3-methyl-5-oxo-2,3-dihydro-5H-[1,4]oxazino[2,3,4-ij]quinoline-6-carboxylic acid]	1 to 32	1 to 32	1 to 32	1 to 32	> 32	< 1	< 1	–
C[C@H]1COc2c(N3CCC(C4CC4N)CC3)c(F)cc3cc(C(=O)O)c(=O)n1c23 (mixture of isomers) [Example 1.64, (3S)-10-(4-(2-aminocyclopropyl)piperidin-1-yl)-9-fluoro-3-methyl-5-oxo-2,3-dihydro-5H-[1,4]oxazino[2,3,4-ij]quinoline-6-carboxylic acid]	1 to 32	> 32	1 to 32	> 32	> 32	1 to 32	> 32	–
C[C@H]1COc2c(N3CCC4NCCCC4C3)c(F)cc3cc(C(=O)O)c(=O)n1c23 (mixture of isomers) [Example 1.65, (3S)-9-fluoro-3-methyl-10-(octahydro-1,6-naphthyridin-6(2H)-yl)-5-oxo-2,3-dihydro-5H-[1,4]oxazino[2,3,4-ij]quinoline-6-carboxylic acid]	> 32	> 32	1 to 32	> 32	> 32	1 to 32	1 to 32	–
C[C@H]1COc2c(N3CC4C(C3)C4N(C)C)c(F)cc3cc(C(=O)O)c(=O)n1c23 (mixture of isomers) [Example 1.69, (3S)-10-(6-(dimethylamino)-3-azabicyclo[3.1.0]hexan-3-yl)-9-fluoro-3-methyl-5-oxo-2,3-dihydro-5H-[1,4]oxazino[2,3,4-ij]quinoline-6-carboxylic acid]	> 32	> 32	1 to 32	> 32	> 32	1 to 32	> 32	–
C[C@H]1COc2c(N3CCCC4(CCN(C)C4)C3)c(F)cc3cc(C(=O)O)c(=O)n1c23 (mixture of isomers) [Example 1.70, (3S)-9-fluoro-3-methyl-10-(2-methyl-2,7-diazaspiro[4.5]decan-7-yl)-5-oxo-2,3-dihydro-5H-[1,4]oxazino[2,3,4-ij]quinoline-6-carboxylic acid]	> 32	> 32	1 to 32	> 32	> 32	1 to 32	> 32	–
O=C(O)c1cn(C2CC2)c2cc(N3CCNCC3)c(F)cc2c1=O [CIP, Ciprofloxacin, reference compound]	< 1	–	< 1	< 1	–	< 1	< 1	–
COC(=O)c1cc2cc(F)c(N3CC[C@@H](C4(N)CC4)C3)c3c2n(c1=O)[C@@H](C)CO3 [Example 1.7, Methyl (S)-10-((R)-3-(1-aminocyclopropyl)pyrrolidin-1-yl)-9-fluoro-3-methyl-5-oxo-2,3-dihydro-5H-[1,4]oxazino[2,3,4-ij]quinoline-6-carboxylate]	< 1	< 1	< 1	–	1 to 32 (≈ 2.49 to 79.7 µM)	< 1	> 32	–
C[C@H]1COc2c(N3CCC(F)(CN)C3)c(F)cc3c(CN)cc(=O)n1c23.O=C(O)C(F)(F)F (stereo partly drawn) [Example 7.1, (3S)-7-(aminomethyl)-10-(3-(aminomethyl)-3-fluoropyrrolidin-1-yl)-9-fluoro-3-methyl-2,3-dihydro-5H-[1,4]oxazino[2,3,4-ij]quinolin-5-one trifluoroacetate salt]	–	1 to 32	–	1 to 32	1 to 32	–	1 to 32	< 1
C[C@H]1COc2c(N3CC[C@H](N)C3)c(F)cc3c(CN)cc(=O)n1c23 [Example 7.2, (S)-7-(aminomethyl)-10-((S)-3-aminopyrrolidin-1-yl)-9-fluoro-3-methyl-2,3-dihydro-5H-[1,4]oxazino[2,3,4-ij]quinolin-5-one]	–	> 32	1 to 32 (≈ 3.01 to 96.3 µM)	1 to 32 (≈ 3.01 to 96.3 µM)	1 to 32 (≈ 3.01 to 96.3 µM)	–	1 to 32 (≈ 3.01 to 96.3 µM)	–
C[C@@H]1COc2c(N3CCC(F)(CN)C3)c(F)cc3c(CN)cc(=O)n1c23 (stereo partly drawn) [Example 7.3, (3R)-7-(aminomethyl)-10-(3-(aminomethyl)-3-fluoropyrrolidin-1-yl)-9-fluoro-3-methyl-2,3-dihydro-5H-[1,4]oxazino[2,3,4-ij]quinolin-5-one]	–	> 32	> 32	> 32	> 32	–	> 32	–
C[C@@H]1COc2c(N3CCNCC3)c(F)cc3c(CN)cc(=O)n1c23 [Example 7.4, (R)-7-(aminomethyl)-9-fluoro-3-methyl-10-(piperazin-1-yl)-2,3-dihydro-5H-[1,4]oxazino[2,3,4-ij]quinolin-5-one]	–	> 32	–	> 32	> 32	–	> 32	> 32
NCc1cc(=O)n2c3c(c(N4CCC(F)(CN)C4)c(F)cc13)OCC2 (stereo not drawn) [Example 7.5, 7-(aminomethyl)-10-(3-(aminomethyl)-3-fluoropyrrolidin-1-yl)-9-fluoro-2,3-dihydro-5H-[1,4]oxazino[2,3,4-ij]quinolin-5-one]	–	> 32	> 32	> 32	> 32	–	> 32	–
N#Cc1cc(=O)n2c3c(c(N4CCC(F)(CN)C4)c(F)cc13)OCC2 (stereo not drawn) [Example 7.6, 10-(3-(aminomethyl)-3-fluoropyrrolidin-1-yl)-9-fluoro-5-oxo-2,3-dihydro-5H-[1,4]oxazino[2,3,4-ij]quinoline-7-carbonitrile]	–	1 to 32 (≈ 2.89 to 92.4 µM)	> 32	> 32	> 32	–	> 32	–
NCc1cc(=O)n2c3c(c(N4CCNCC4)c(F)cc13)OCC2 [Example 7.7, 7-(aminomethyl)-9-fluoro-10-(piperazin-1-yl)-2,3-dihydro-5H-[1,4]oxazino[2,3,4-ij]quinolin-5-one]	–	> 32	–	> 32	> 32	–	> 32	> 32
N#Cc1cc(=O)n2c3c(c(N4CCNCC4)c(F)cc13)OCC2 [Example 7.8, 9-fluoro-5-oxo-10-(piperazin-1-yl)-2,3-dihydro-5H-[1,4]oxazino[2,3,4-ij]quinoline-7-carbonitrile]	–	> 32	–	> 32	> 32	–	> 32	> 32

Reference: patent publication US20180318311A1, “TRICYCLIC 2-QUINOLINONES AS ANTIBACTERIALS” (priority 2017, published 2018)
